Read-outs that look alike come from different tables or passages of the source.

By Kd is commonly meant the concentration at which binding is half-saturated. As usually defined, the koff is the first-order rate constant of dissociation. The term kon denotes the second-order rate constant of association. Low values mean slow association, high ones fast association.

The target in series [1] is maltose-binding protein (MBP) (Escherichia coli, UniProt P0AEX9). On the set-up: species or system E. coli. As to conditions: for frequency of state 1 / frequency of state 2 / frequency of state 3: 1 μM maltose; for current signal of trapped MBP on addition of the sugar: added to the cis chamber.
The conditions of series [2]: cited from earlier work.
Another series concerns the target MBP (Escherichia coli, UniProt P0AEX9). As to conditions: read-out: Kd, previously determined value; cited from earlier work.
Where [3] appears, read: 10 μM sodium phosphate, before depletion of α-maltose.
[4] abbreviates: after depletion of α-maltose by 0.25 unit maltose phosphorylase.
Where [5] appears, read: in the presence of ligand, −80 mV.
Where [6] appears, read: assumption that state 3 represents MBP bound to an aldehyde intermediate.
Setting [7] is: state 1, β anomer, −80 mV, pH 7.5.
Setting [8] is: state 2, α anomer, −80 mV, pH 7.5.
[9] abbreviates: state 3, β anomer (second binding mode), −80 mV, pH 7.5.

`OC[C@H]1O[C@H](O[C@H]2[C@H](O)[C@@H](O)[C@H](O)O[C@@H]2CO)[C@H](O)[C@@H](O)[C@@H]1O` [Maltose, maltose]: in series [1] (setting [3]), the “frequency of state 1” value is 4.28 ± 0.57 s⁻¹ and the “frequency of state 2” value was 0.18 ± 0.17 s⁻¹. Also, in series [1] (setting [4]), the “frequency of state 1” value came to 5.59 ± 0.89 s⁻¹ and the “frequency of state 2” value is 0 s⁻¹. Further, the “frequency of state 3” value in series [1] (after the depletion of α-maltose) stood at 0.01 ± 0.02 s⁻¹. Moreover, in series [1] (before the depletion of α-maltose), the “frequency of state 3” value was found to be 0.05 ± 0.04 s⁻¹. For the same molecule, in series [1] (setting [5]), the “residual current, state 0” value is reported as 56.5 ± 0.4%; the “residual current, state 1” value worked out at 54.0 ± 0.4%; the “residual current, state 2” value turned out to be 52.0 ± 0.4%; the “residual current, state 3” value stood at 51.1 ± 0.4%.

Turning to `O=C[C@H](O)[C@@H](O)[C@H](O[C@H]1O[C@H](CO)[C@@H](O)[C@H](O)[C@H]1O)[C@H](O)CO` [aldehyde intermediate], in series [1] (setting [6]), the Kd came out at 0.019 nM, the koff was 1.3 ± 0.5 s⁻¹ and the kon is 6.9 ± 2.8 × 10^10 M^−1s^−1.

In the case of `OC[C@H]1O[C@H](O[C@H]2[C@H](O)[C@@H](O)[C@@H](O[C@H]3[C@H](O)[C@@H](O)[C@@H](O[C@H]4[C@H](O)[C@@H](O)C(O)O[C@@H]4CO)O[C@@H]3CO)O[C@@H]2CO)[C@H](O)[C@@H](O)[C@@H]1O` (some centres unmarked) [maltotetraose], the “current signal of trapped MBP on addition of the sugar” value (“current signal of trapped MBP” below) in series [1] (−80 mV) was “three ligand-bound current levels similar to those of maltose and maltotriose”.

In the case of `OC[C@H]1O[C@@](CO)(O[C@H]2O[C@H](CO)[C@@H](O)[C@H](O)[C@H]2O)[C@@H](O)[C@@H]1O` [sucrose], in series [1] (−80 mV), the “current signal of trapped MBP” value is recorded as “no signal change”.

For the molecule `OC[C@H]1O[C@H](O[C@H]2[C@H](O)[C@@H](O)[C@@H](O)O[C@@H]2CO)[C@H](O)[C@@H](O)[C@@H]1O` [α-maltose], the “rate constant of spontaneous interconversion between α-maltose and β-maltose” value in series [2] is reported as ~ 0.009 min^−1.

As for `OC[C@H]1O[C@@H]2O[C@H]3[C@H](O)[C@@H](O)[C@@H](O[C@H]4[C@H](O)[C@@H](O)[C@@H](O[C@H]5[C@H](O)[C@@H](O)[C@@H](O[C@H]6[C@H](O)[C@@H](O)[C@@H](O[C@H]7[C@H](O)[C@@H](O)[C@@H](O[C@H]8[C@H](O)[C@@H](O)[C@@H](O[C@H]1[C@H](O)[C@H]2O)O[C@@H]8CO)O[C@@H]7CO)O[C@@H]6CO)O[C@@H]5CO)O[C@@H]4CO)O[C@@H]3CO` [β-cyclodextrin], the “current signal of trapped MBP” value in series [1] (−80 mV) is reported as “one major current level similar to state 1 of maltose”.

For maltotriose, the “current signal of trapped MBP” value in series [1] (−80 mV) is “four states that were almost identical to the states seen with maltose”. Further, the Kd in series [1] (state 1, β anomer, −80 mV, 150 mM NaCl, 15 mM Tris-HCl, pH 7.5) was 120 nM; in series [1] (setting [8]), 240 ± 10 nM; in series [1] (setting [9]), 380 ± 20 nM; on MBP, 160 to 700 nM. Further, the koff was determined as 4.8 ± 0.3 s⁻¹ in series [1] (setting [7]), 1.6 ± 0.1 s⁻¹ in series [1] (setting [8]) and 1.9 ± 0.4 s⁻¹ in series [1] (setting [9]). Further, the values for the kon in series [1] (setting [7]), in series [1] (setting [8]) and in series [1] (setting [9]) were 40.8 ± 0.1 µM⁻¹ s⁻¹, 6.6 ± 0.1 µM⁻¹ s⁻¹ and 5.0 ± 0.2 µM⁻¹ s⁻¹, respectively. In addition, the “association rate of major β-anomer binding state relative to α-anomer” value in series [1] (state 1 versus state 2) is “more than 3 times”.

Source of the values: publication PMC7162534 (ACS nano, 2020).
